Experimental data as given in ChEMBL document CHEMBL1138720, “Synthesis, (1-->3)-beta-D-glucanase-binding ability and phytoalexin-elicitor activity of (R)-2,3-epoxypropyl (1-->3)-beta-D-pentaglucoside” (Bioorg Med Chem Lett, 2004).

What was measured:
[1] = Phytoalexin-elicitor activity in tobacco cotyledon tissue was determined after 66 hrs; format: functional, Nicotiana tabacum
[2] = Inactivation of (1-3)-beta-D-glucanase by the compound was determined
[3] = Phytoalexin-elicitor activity in tobacco cotyledon tissue was determined after 22 hrs; format: functional, Nicotiana tabacum
[4] = Phytoalexin-elicitor activity in tobacco cotyledon tissue was determined after 44 hrs; format: functional, Nicotiana tabacum

Molecule `OC[C@H]1O[C@@H](O[C@@H]2[C@@H](O)[C@H](O[C@@H]3[C@@H](O)[C@H](O[C@@H]4[C@@H](O)[C@H](O[C@@H]5[C@@H](O)[C@H](OC[C@H]6CO6)O[C@H](CO)[C@H]5O)O[C@H](CO)[C@H]4O)O[C@H](CO)[C@H]3O)O[C@H](CO)[C@H]2O)[C@H](O)[C@@H](O)[C@@H]1O` has an EC50 [1] of 160 uM l-1, a K app [2] of 0.000379 min⁻¹ and an EC50 [3] of 90 uM l-1. The EC50 [4] was 80 uM l-1.
